Results on 4 compounds are retold here after patent publication US20040157800A1, “Ascorbyl derivatives of carnitines and cosmetic compositions containing same” (priority 2001, published 2004).

Counter-ions that a name gives are not always drawn.

This data set is described as follows: Weight increase, appearance and flowability after exposure to humidity (hygroscopicity). The class given is physicochemical. Conditions: for Appearance / Weight increase (%): 60% relative humidity at 25° C. for 42 hours; for Hygroscopicity of the solid (in words): isolated crystalline solid; for Flowability: time needed by a 10-gram sample to pass through a funnel of 4 mm diameter, after 60% relative humidity at 25° C. for 42 hours. On the procedure:
In the following Table 1, the weight increase (%) and the flowability of the compounds of the invention are compared with those of L-carnitine and acetyl L-carnitine inner salts following exposure of the compounds to 60% relative humidity at 25° C. for 42 hours. Reference method:
Pharmaeuropa November 1996.

With `C[N+](C)(C)C[C@H](O)CC(=O)[O-]` [L-carnitine Inner salt, L-carnitine inner salt, reference compound], the Appearance entry is given as “deliquescent” and the “Weight increase (%)” value is reported as 19%.

Take `CC(=O)O[C@H](CC(=O)[O-])C[N+](C)(C)C` [acetyl L-carnitine Inner salt, acetyl L-carnitine inner salt, reference compound]: the Appearance result is “deliquescent” and the “Weight increase (%)” value came to 20%.

With “Acetyl L-Carnitine Magnesium Ascorbyl Phosphate [Example 2]”, the Appearance result was “no variation”, the “Weight increase (%)” value was found to be 0.14%, the “Hygroscopicity of the solid (in words)” value is recorded as “non-hygroscopic” and the Flowability turned out to be 6 s.

“L-Carnitine Magnesium Ascorbyl Phosphate [Example 1]”: the Appearance result is listed as “no variation”, the “Weight increase (%)” value is given as 0.12%, the “Hygroscopicity of the solid (in words)” value was “non-hygroscopic” and the Flowability worked out at 5 s.
